The numbers were not newly measured in patent US20250161269A1 (Celmatix Inc., priority 2022, published 2025), which cites them from elsewhere.

pKi: −log10 of the molar value. Read-outs that look alike come from different tables or passages of the source.

What is called pKi is the Ki on a negative log10 scale, so that one unit is a factor of ten.

In data set [1] the target is 5-HT2B receptor (Homo sapiens, UniProt P41595). Particulars: antagonist; cited from earlier work.
For data set [2] the following is noted: in vivo; cited from earlier work.
The target of data set [3] is serum albumin (Homo sapiens, UniProt P02768). The settings on record: peripheral circulation; cited from earlier work.
Data set [4] relates to PCOS patients. Particulars: PCOS patients or patients with metabolic disturbances; cited from earlier work.
The subject of data set [5] is endometriosis patients. The settings on record: cited from earlier work.
In data set [6] the test system is endometriosis lesion. Particulars: animals; cited from earlier work.
Data set [7] relates to PCOS animal models. The settings on record: cited from earlier work.
For data set [8], the system named is chemotherapy tissue damage animal models. Particulars: cited from earlier work.
For data set [9], the system named is macrophages (RAW264.7 or primary cells). The settings on record: macrophages treated with LPS; cited from earlier work.
Data set [10] concerns the target T1, MT1 (Homo sapiens, UniProt P48039). The settings on record: cited from earlier work.
The target of data set [11] is T2, MT2 (Homo sapiens, UniProt P49286).
T2 sequence (P49286 1-362): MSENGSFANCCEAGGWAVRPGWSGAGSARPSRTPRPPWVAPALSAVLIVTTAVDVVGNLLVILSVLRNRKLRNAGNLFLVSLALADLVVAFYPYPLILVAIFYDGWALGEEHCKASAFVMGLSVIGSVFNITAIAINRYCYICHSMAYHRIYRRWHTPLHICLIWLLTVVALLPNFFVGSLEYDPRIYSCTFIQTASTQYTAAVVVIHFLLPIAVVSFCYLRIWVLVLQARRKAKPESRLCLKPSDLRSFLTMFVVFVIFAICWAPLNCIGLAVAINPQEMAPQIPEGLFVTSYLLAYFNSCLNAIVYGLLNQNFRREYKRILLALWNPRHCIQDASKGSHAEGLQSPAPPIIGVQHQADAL
Particulars: cited from earlier work.

Data set [12] concerns the target T1, MT1. More on the design: host or cells: CHO-K1 cells (as the earlier reading words it). Particulars: CHO-K1 cells; cited from earlier work.
The target of data set [13] is T2, MT2. More on the design: host or cells: CHO-K1 cells (as the earlier reading words it). The settings on record: CHO-K1 cells; cited from earlier work.
The target in data set [14] is T1, MT1. The settings on record: NIH-3T3 cells; cited from earlier work.

T1 sequence (P48039 whole entry): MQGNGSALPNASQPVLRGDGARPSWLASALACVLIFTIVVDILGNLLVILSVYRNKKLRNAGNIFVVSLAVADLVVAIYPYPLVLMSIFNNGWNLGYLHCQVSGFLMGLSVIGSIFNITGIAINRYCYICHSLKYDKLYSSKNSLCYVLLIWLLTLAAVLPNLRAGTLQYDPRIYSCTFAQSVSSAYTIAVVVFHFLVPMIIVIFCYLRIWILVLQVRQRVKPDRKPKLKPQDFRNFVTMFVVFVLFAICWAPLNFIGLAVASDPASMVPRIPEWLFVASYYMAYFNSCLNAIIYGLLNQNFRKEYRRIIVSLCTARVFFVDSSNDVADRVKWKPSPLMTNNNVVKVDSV
serum albumin, sequence (P02768 25-609): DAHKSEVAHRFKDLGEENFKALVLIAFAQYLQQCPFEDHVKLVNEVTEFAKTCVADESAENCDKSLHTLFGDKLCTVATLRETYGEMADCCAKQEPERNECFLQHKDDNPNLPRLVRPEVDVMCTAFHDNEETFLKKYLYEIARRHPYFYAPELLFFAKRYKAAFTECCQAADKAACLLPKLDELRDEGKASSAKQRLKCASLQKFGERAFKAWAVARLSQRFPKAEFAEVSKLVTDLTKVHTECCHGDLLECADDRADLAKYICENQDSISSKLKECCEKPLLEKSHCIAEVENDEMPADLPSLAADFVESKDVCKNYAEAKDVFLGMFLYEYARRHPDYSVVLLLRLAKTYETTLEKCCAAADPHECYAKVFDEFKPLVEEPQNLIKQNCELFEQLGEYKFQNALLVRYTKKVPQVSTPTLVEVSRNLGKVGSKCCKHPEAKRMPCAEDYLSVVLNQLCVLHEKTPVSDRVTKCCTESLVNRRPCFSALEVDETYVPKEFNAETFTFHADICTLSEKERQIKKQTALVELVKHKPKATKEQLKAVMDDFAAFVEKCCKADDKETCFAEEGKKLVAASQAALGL
5-HT2B receptor, sequence (P41595 whole entry): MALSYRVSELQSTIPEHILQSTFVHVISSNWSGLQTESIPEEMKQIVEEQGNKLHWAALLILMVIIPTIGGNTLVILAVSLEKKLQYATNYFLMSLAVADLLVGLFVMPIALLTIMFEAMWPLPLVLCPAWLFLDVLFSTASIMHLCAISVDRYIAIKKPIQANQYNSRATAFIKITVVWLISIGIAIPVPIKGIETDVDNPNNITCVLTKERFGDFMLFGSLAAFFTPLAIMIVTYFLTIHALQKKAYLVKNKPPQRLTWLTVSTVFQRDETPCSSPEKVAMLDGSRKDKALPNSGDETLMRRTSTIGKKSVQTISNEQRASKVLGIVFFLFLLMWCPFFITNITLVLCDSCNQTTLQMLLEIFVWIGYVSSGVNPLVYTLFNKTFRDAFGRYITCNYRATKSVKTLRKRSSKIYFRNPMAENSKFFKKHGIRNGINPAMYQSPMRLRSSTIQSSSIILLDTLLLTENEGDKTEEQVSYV

Regarding `COc1ccc2cccc(CCNC(C)=O)c2c1` [Agomelatine], the pKi in data set [1] is 6.18.

Consider `COc1ccc2[nH]cc(CCNC(C)=O)c2c1` [Melatonin, N-acetyl-5-methoxytryptamine], for which the “half-life inside the body” value in [2] is 20 to 40 min. In addition, the “bound to serum albumin” value in data set [3] was “approximately 70%”. The “effect on hyperandrogenism, inflammation, ART outcome, and metabolic function” value in [4] was “beneficial effect”. For the same compound, in data set [5], the “effect on pelvic pain” value is recorded as “beneficial effect”. The endometriosis lesion regression result in [6] is on record as “promotes endometriosis lesion regression”. Besides, the “metabolic and reproductive traits” value is “improve metabolic and reproductive traits” in [7]; “mitigate and protect metabolic and reproductive traits” in data set [8]. The “LPS-induced expression of pro-inflammatory molecules (e.g. TNFα, IL1B, IL6, IL8)” value in data set [9] was “reduces their LPS-induced expression”.

As for `COc1ccc2[nH]cc(CCNC(=O)c3cc(=O)cco3)c2c1` [Piromelatine], the pKi in data set [10] is 10.66; in data set [11] it was 10.47.

Regarding `CCC(=O)NCC[C@@H]1CCc2ccc3c(c21)CCO3` [Ramelteon], the negative-log Ki (pKi) is 9.96 in data set [11], 9.93 in [12] and 9.94 in data set [13].

With `COc1cc2c(C(C)CNC(C)=O)c[nH]c2cc1Cl` (stereo not drawn) [TIK-301, beta-methyl-6-chloromelatonin], the figures for the pKi in [10] and in data set [11] were 10.09 and 10.38, respectively.

On to `CCC(=O)NC[C@@H]1C[C@H]1c1cccc2c1CCO2` [Tasimelteon], for which the pKi in data set [10] was 9.52; in [14], 9.52; in data set [12], 9.46; in [13], 9.77.
